A short description of data set [1]: Metabolic stability test in plasma. The settings on record: LC/MS; for remaining at 10 min: unchanged form after 10 minutes at 37°C in human plasma, read-out: Remaining rate in human plasma (%/10min); for remaining at 1 h: unchanged form after 60 minutes at 37°C in human plasma, read-out: Remaining rate in human plasma (%/60min). The data set is classed as in vitro ADME, human. The procedure, abridged: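 Remaining rate (%) versus zero time was derived from LC/MS measurement of parent compound after centrifugation. Plasma from human, mouse and hamster received DMSO-dissolved compound and was held at 37°C for 0, 10 or 60 minutes before acetonitrile containing formic acid (final 0.1%) stopped the reaction.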

Data set [2] is described as follows: Stability test in buffer (pH 7.4). Format: physicochemical. The settings on record: phosphate buffer/acetonitrile 7:3, 100 mM potassium phosphate buffer (pH 7.4) and acetonitrile 7:3 (v/v), LC/MS; for remaining at 10 min: 10 minutes at 37°C, read-out: Buf. remaining rate (%/10min); for remaining at 1 h: 60 minutes at 37°C, read-out: Buf. remaining rate (%/60min). The procedure, abridged:
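Parent compound measured by LC/MS after 0, 10 or 60 min at 37°C in a 7:3 (v/v) mix of 100 mM potassium phosphate buffer and acetonitrile, with the reaction stopped by acetonitrile plus formic acid (final 0.1%). Percentage remaining is expressed relative to the zero-time amount.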

Data set [3] in a line: Metabolic stability test in liver S9. Format: in vitro ADME. The following applies: pH 7.4, human liver S9 2 mg protein/mL, LC/MS; for remaining at 10 min: unchanged form after 10 minutes at 37°C, read-out: Remaining rate in human liver S9 (%/10min); for remaining at 1 h: unchanged form after 60 minutes at 37°C, read-out: Remaining rate in human liver S9 (%/60min). The gist of the method:
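Compound from DMSO solution was incubated at 37°C with human liver S9 (final 2 mg protein/mL) in 100 mM potassium phosphate pH 7.4 with an NADPH-regenerating system for 0, 10 and 60 minutes. Reactions were stopped with acetonitrile/0.1% formic acid. Unchanged compound was measured by LC/MS as remaining rate (%) relative to zero time.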

Regarding `CCc1cc(C(=O)OC)cc(F)c1OC(=O)CCCc1ccc(NC(=O)c2ccc(C)nc2-c2ccc(C(F)(F)F)cc2)c(C(=O)N(C)C)c1` [Compound 1-42, 4-[4-(3-dimethylcarbamoyl-4-{[6-methyl-2-(4-trifluoromethylphenyl)pyridine-3-carbonyl]amino}phenyl)butyryloxy]-3-ethyl-5-fluorobenzoic acid methyl ester], the results for the remaining at 10 min in data set [1], in data set [2] and in data set [3] were 52%, 103% and 5%, respectively. The figures for the remaining at 1 h in data set [1], in data set [2] and in data set [3] were 0%, 103% and 0%, respectively.
On to `CN(C)C(=O)c1cc(CCCC(=O)Oc2ccc(C(=O)OCc3ccccn3)cc2)ccc1NC(=O)c1ccccc1-c1ccc(C(F)(F)F)cc1` [Compound 1-82, 4-[4-(3-dimethylcarbamoyl-4-{(4'-trifluoromethylbiphenyl-2-carbonyl)amino}phenyl)butyryloxy]benzoic acid pyridin-2-ylmethyl ester], for which the remaining at 10 min in data set [1] was 17%; in data set [2], 100%; in data set [3], 0%. In addition, the remaining at 1 h turned out to be 0% in data set [1], 103% in data set [2] and 0% in data set [3].
Regarding `CC(=O)c1ccc(OC(=O)CCCc2ccc(NC(=O)c3ccccc3-c3ccc(C(F)(F)F)cc3)c(C(=O)N(C)C)c2)cc1` [Compound 1-22, 4-(3-dimethylcarbamoyl-4-[(4'-trifluoromethylbiphenyl-2-carbonyl)amino]phenyl}butyric acid 4-acetylphenyl ester], the remaining at 10 min came to 8% in data set [1], 96% in data set [2] and 0% in data set [3]. Besides, the remaining at 1 h in data set [1] was 0%; in data set [2] it was 98%; in data set [3], 0%.
As for `COC(=O)c1cc(Br)c(OC(=O)CCCc2ccc(NC(=O)c3ccc(C)nc3-c3ccc(C(F)(F)F)cc3)c(C(=O)N(C)C)c2)c(OC)c1` [Compound 1-50, 3-bromo-4-[4-(3-dimethylcarbamoyl-4-{[6-methyl-2-(4-trifluoromethylphenyl)pyridine-3-carbonyl]amino}phenyl)butyryloxy]-5-methoxybenzoic acid methyl ester], the remaining at 10 min turned out to be 0% in data set [1], 97% in data set [2] and 7% in data set [3]. Further, the remaining at 1 h in data set [1] was found to be 0%; in data set [2] it was 103%; in data set [3], 2%.
For `COC(=O)c1ccc(OC(=O)CCCc2ccc(NC(=O)c3ccccc3-c3ccc(C(F)(F)F)cc3)c(C(=O)N(C)C)c2)c(C(=O)OC)c1` [Compound 1-33, 4-(4-{3-dimethylcarbamoyl-4-[(4'-trifluoromethylbiphenyl-2-carbonyl)amino]phenyl}butyryloxy)isophthalic acid dimethyl ester], the remaining at 10 min in data set [1] worked out at 0%; in data set [2], 98%; in data set [3], 0%. Also, the remaining at 1 h in data set [1] amounted to 0%; in data set [2], 102%; in data set [3], 0%.
As for `COC(=O)c1cc(OC)c(OC(=O)CCCc2ccc(NC(=O)c3ccc(C)nc3-c3ccc(C(F)(F)F)cc3)c(C(=O)N(C)C)c2)c(C(=O)OC)c1` [Compound 1-53, 4-[4-(3-dimethylcarbamoyl-4-{[6-methyl-2-(4-trifluoromethylphenyl)pyridine-3-carbonyl]amino}phenyl)butyryloxy]-5-methoxyisophthalic acid dimethyl ester], the remaining at 10 min in data set [1] stood at 3%; in data set [2] it was 100%; in data set [3] it was 5%. The figures for the remaining at 1 h in data set [1], in data set [2] and in data set [3] were 3%, 106% and 2%, respectively.
With `COC(=O)c1cc(C)c(OC(=O)CCCc2ccc(NC(=O)c3ccccc3-c3ccc(C(F)(F)F)cc3)c(C(=O)N(C)C)c2)c(C)c1` [Compound 1-64, 4-[4-(3-dimethylcarbamoyl-4-{(4'-trifluoromethylbiphenyl-2-carbonyl)amino}phenyl)butyryloxy]-3,5-dimethylbenzoic acid methyl ester], the remaining at 10 min in data set [1] was 98%; in data set [2], 100%; in data set [3], 21%. Also, the remaining at 1 h stood at 93% in data set [1], 101% in data set [2] and 4% in data set [3].
On to `COC(=O)c1cc(C(=O)OC(C)C)ccc1OC(=O)CCCc1ccc(NC(=O)c2ccc(C)nc2-c2ccc(C(F)(F)F)cc2)c(C(=O)N(C)C)c1` [Compound 1-72, 4-[4-(3-dimethylcarbamoyl-4-{[6-methyl-2-(4-trifluoromethylphenyl)pyridine-3-carbonyl]amino}phenyl)butyryloxy]isophthalic acid 1-isopropyl ester 3-methyl ester], for which the remaining at 10 min was 0% in data set [1], 113% in data set [2] and 4% in data set [3]. In addition, the results for the remaining at 1 h in data set [1], in data set [2] and in data set [3] were 0%, 112% and 0%, respectively.
Consider `CN(C)C(=O)c1cc(CCCC(=O)Oc2ccc(C(=O)OCc3cccc(Cl)c3)cc2)ccc1NC(=O)c1ccccc1-c1ccc(C(F)(F)F)cc1` [Compound 1-87, 4-[4-(3-dimethylcarbamoyl-4-{(4'-trifluoromethylbiphenyl-2-carbonyl)amino}phenyl)butyryloxy]benzoic acid 3-chlorobenzyl ester], for which the remaining at 10 min in data set [1] is 60%; in data set [2], 100%; in data set [3], 11%. Also, the remaining at 1 h in data set [1] worked out at 2%; in data set [2] it was 104%; in data set [3] it was 2%.
For the compound `CCCOC(=O)c1ccc(OC(=O)CCCc2ccc(NC(=O)c3ccccc3-c3ccc(C(F)(F)F)cc3)c(C(=O)N(C)C)c2)cc1` [Compound 1-8, 4-(4-{3-dimethylcarbamoyl-4-[(4'-trifluoromethylbiphenyl-2-carbonyl)amino]phenyl}butyryloxy) benzoic acid propyl ester], the remaining at 10 min in data set [1] is 71%; in data set [2] it was 99%; in data set [3], 0%. Besides, the remaining at 1 h in data set [1] was 12%; in data set [2] it was 98%; in data set [3], 0%.
Turning to `COC(=O)c1cc(C)c(OC(=O)CCCc2ccc(NC(=O)c3ccc(C)nc3-c3ccc(C(F)(F)F)cc3)c(C(=O)N(C)C)c2)c(C)c1` [Compound 1-65, 4-[4-(3-dimethylcarbamoyl-4-{[6-methyl-2-(4-trifluoromethylphenyl)pyridine-3-carbonyl]amino}phenyl)butyryloxy]-3,5-dimethylbenzoic acid methyl ester], the results for the remaining at 10 min in data set [1], in data set [2] and in data set [3] were 98%, 104% and 8%, respectively. Further, the results for the remaining at 1 h in data set [1], in data set [2] and in data set [3] were 94%, 104% and 0%, respectively.
Turning to `COc1cccc(COC(=O)c2ccc(OC(=O)CCCc3ccc(NC(=O)c4ccccc4-c4ccc(C(F)(F)F)cc4)c(C(=O)N(C)C)c3)cc2)c1` [Compound 1-97, 4-[4-(3-dimethylcarbamoyl-4-{(4'-trifluoromethylbiphenyl-2-carbonyl)amino}phenyl)butyryloxy]benzoic acid 3-methoxybenzyl ester], the figures for the remaining at 10 min in data set [1], in data set [2] and in data set [3] were 49%, 100% and 13%, respectively. For the same compound, the remaining at 1 h was 0% in data set [1], 104% in data set [2] and 7% in data set [3].
For the compound `COC(=O)c1ccc(OC(=O)CCCc2ccc(NC(=O)c3ccc(C)nc3-c3ccc(C(F)(F)F)cc3)c(C(=O)N(C)C)c2)c(C)c1` [Compound 1-69, 4-[4-(3-dimethylcarbamoyl-4-{[6-methyl-2-(4-trifluoromethylphenyl)pyridine-3-carbonyl]amino}phenyl)butyryloxy]-3-methylbenzoic acid methyl ester], the remaining at 10 min in data set [1] came to 70%; in data set [2], 101%; in data set [3], 0%. The remaining at 1 h in data set [1] was 11%; in data set [2] it was 106%; in data set [3], 0%.
For `COC(=O)c1ccc(OC(=O)CCCc2ccc(NC(=O)c3ccc(C)nc3-c3ccc(C(F)(F)F)cc3)c(C(=O)N(C)C)c2)cn1` [Compound 1-32, 5-[4-(3-dimethylcarbamoyl-4-{[6-methyl-2-(4-trifluoromethylphenyl)pyridine-3-carbonyl]amino}phenyl)butyryloxy]pyridine-2-carboxylic acid methyl ester], the remaining at 10 min was found to be 0% in data set [1], 100% in data set [2] and 0% in data set [3]. Besides, the remaining at 1 h in data set [1] was found to be 0%; in data set [2] it was 97%; in data set [3], 0%.

The values are drawn from patent EP1803452A1, “ESTER DERIVATIVE AND PHARMACEUTICAL USE THEREOF” (Japan Tobacco, Inc., priority 2004, dated 2006).
